# In PubChem BioAssay AID1963843 (Molecular Pharmacology Branch, DTP, NCI, 2024):
# Test system: 616215-338-R-J1-PDC complex spheroid viability
# Assay: Anticancer human tumor 616215-338-R-J1-PDC patient-derived colon adenocarcinoma cell line growth inhibition [POLQ]
# Details: for IC50: curve of first compound; for viability, T/C: stronger effect = lower value
# In short: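 Three-cell-type spheroids modelling solid tumor plus stroma served as the readout system; POL inhibitors were tested individually and in combination, concentration ranges set by clinical Cmax where known.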
# 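Further: spheroids exposed to compounds for one week before readout.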
# 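Wherever viability, T/C is given: percent viability relative to DMSO vehicle wells taken as 100%.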
smiles,measurement,setting,value
CC1COCCN1c1cc(-c2ccnn2C)c2ccnc(-c3ccn[nH]3)c2n1 (configuration not stated) + Cc1cccc(N(C)C(=O)C2C(O)CCN2c2nc(C)cc(C(F)(F)F)c2C#N)c1,IC50,second compound 0.0316 µM,> 10 µM
same,IC50,second compound 0.1 µM,> 10 µM
same,IC50,second compound 0.316 µM,> 10 µM
same,IC50,second compound 1 µM,2.79 µM
same,IC50,second compound 3.16 µM,1.99 µM
same,IC50,second compound 10 µM,1.24 µM
same,"viability, T/C","second compound 0.0316 µM, first compound 0.0316 µM",104%
same,"viability, T/C","second compound 0.0316 µM, first compound 0.1 µM",110%
same,"viability, T/C","second compound 0.0316 µM, first compound 0.316 µM",76.7%
same,"viability, T/C","second compound 0.0316 µM, first compound 1 µM",66.2%
same,"viability, T/C","second compound 0.0316 µM, first compound 3.16 µM",49.4%
same,"viability, T/C","second compound 0.0316 µM, first compound 10 µM",50.6%
same,"viability, T/C","second compound 0.1 µM, first compound 0.0316 µM",103%
same,"viability, T/C","second compound 0.1 µM, first compound 0.1 µM",100%
same,"viability, T/C","second compound 0.1 µM, first compound 0.316 µM",69.5%
same,"viability, T/C","second compound 0.1 µM, first compound 1 µM",61.8%
same,"viability, T/C","second compound 0.1 µM, first compound 3.16 µM",50.1%
same,"viability, T/C","second compound 0.1 µM, first compound 10 µM",50.5%
same,"viability, T/C","second compound 0.316 µM, first compound 0.0316 µM",107%
same,"viability, T/C","second compound 0.316 µM, first compound 0.1 µM",91.1%
same,"viability, T/C","second compound 0.316 µM, first compound 0.316 µM",66.3%
same,"viability, T/C","second compound 0.316 µM, first compound 1 µM",57.4%
same,"viability, T/C","second compound 0.316 µM, first compound 3.16 µM",52.4%
same,"viability, T/C","second compound 0.316 µM, first compound 10 µM",53%
same,"viability, T/C","second compound 1 µM, first compound 0.0316 µM",101%
same,"viability, T/C","second compound 1 µM, first compound 0.1 µM",91%
same,"viability, T/C","second compound 1 µM, first compound 0.316 µM",71.9%
same,"viability, T/C","second compound 1 µM, first compound 1 µM",57.1%
same,"viability, T/C","second compound 1 µM, first compound 3.16 µM",53%
same,"viability, T/C","second compound 1 µM, first compound 10 µM",40.8%
same,"viability, T/C","second compound 3.16 µM, first compound 0.0316 µM",114%
same,"viability, T/C","second compound 3.16 µM, first compound 0.1 µM",95.2%
same,"viability, T/C","second compound 3.16 µM, first compound 0.316 µM",72.2%
same,"viability, T/C","second compound 3.16 µM, first compound 1 µM",54%
same,"viability, T/C","second compound 3.16 µM, first compound 3.16 µM",44.1%
same,"viability, T/C","second compound 3.16 µM, first compound 10 µM",47.9%
same,"viability, T/C","second compound 10 µM, first compound 0.0316 µM",111%
same,"viability, T/C","second compound 10 µM, first compound 0.1 µM",90.6%
same,"viability, T/C","second compound 10 µM, first compound 0.316 µM",68%
same,"viability, T/C","second compound 10 µM, first compound 1 µM",49.2%
same,"viability, T/C","second compound 10 µM, first compound 3.16 µM",47.5%
same,"viability, T/C","second compound 10 µM, first compound 10 µM",36.8%
